Patent US9434695B2, “Nitrogenous heterocyclic derivatives and their application in drugs” (SUNSHINE LAKE PHARMA CO., LTD., priority 2012, dated 2016)

Test system: BHK-21 cells
Experiment: inhibition of BHK-21 cell proliferation (CCK-8, optical density at 450 nm)
Assay type: cell-based
Conditions: for IC50: Mesocricetus auratus, inhibition ratio of cell proliferation, 48 hours after dosing, CCK-8; for The ratio with PFD (multiple): ratio of Pirfenidone IC50 from the compound IC50, the bigger the multiple, the better the vitro inhibitory activity, 48 hours
Description: Taking BHK-21 cells which in exponential growth phase, collecting and counting the cells which had digestive transfer culture after fusion growth 85-95%, adjusting the cell density to 2×10^4 cells per milliliter, seeding the cells into 96-well plates, 100 μl/well, the cells were incubated in a 5% CO2 incubator at 37° C.
The upper clear liquid of the 96-well plates was removed after the cells adhering to the wall 24 hours. The above compounds were confected into solutions of different concentration and the solutions were added to the wells, 100 μl/well. Each concentration solution in 3 replicates, the cells were subcultured 48 hours after dosing.
3. Testing the Optical Density
10 μl of CCK-8 solution was added to each well 48 hours after dosing, and incubated for 2 hours. The optical density (A) of each well was determined by a microplate reader at 450 nm wavelength. Calculating the inhibition ratio of cell proliferation of each compound is based on A and the inhibition ratio of cell proliferation (inhibition ratio, IR)=(1−value of experimental group (Ai)/value of control group (Ao))×100% and the IC50 of each compound at 48 hours was calculated by data processing software.

## Cc1cc(=O)n(-c2ccc(N3CCOCC3)c(F)c2)c(COc2cc(F)cc(F)c2)n1 [Example 50, 2-((3,5-difluorophenoxy)methyl)-3-(3-fluoro-4-morpholinophenyl)-6-methylpyrimidin-4(3H)-one]
  IC50: 60 µM
  The ratio with PFD (multiple): 42.93 multiple

## Cc1cc(=O)n(-c2ccc(N3CCOCC3)c(F)c2)c(CSc2cccc(F)c2)n1 [Example 51, 3-(3-fluoro-4-morpholinophenyl)-2-(((3-fluorophenyl)thio)methyl)-6-methylpyrimidin-4(3H)-one]
  IC50: 100 µM
  The ratio with PFD (multiple): 25.14 multiple

## Cc1cc(=O)n(-c2ccc(N3CCOCC3)c(F)c2)c(CCc2cccc(F)c2)n1 [Example 52, 3-(3-fluoro-4-morpholinophenyl)-2-(3-fluorophenethyl)-6-methylpyrimidin-4(3H)-one]
  IC50: 180 µM
  The ratio with PFD (multiple): 14.15 multiple

## Cc1cc(=O)n(-c2ccc(N3CCOCC3)c(F)c2)c(CCCOc2cccc(F)c2)n1 [Example 53, 3-(3-fluoro-4-morpholinophenyl)-2-(3-(3-fluorophenoxy)propyl)-6-methylpyrimidin-4(3H)-one]
  IC50: 500 µM
  The ratio with PFD (multiple): 15.49 multiple

## Cc1cc(=O)n(-c2ccc(N3CCN(C)CC3)c(F)c2)c(COc2cccc(F)c2)n1 [Example 55, 3-(3-fluoro-4-(4-methylpiperazin-1-yl)phenyl)-2-((3-fluorophenoxy)methyl)-6-methylpyrimidin-4(3H)-one]
  IC50: 50 µM
  The ratio with PFD (multiple): 46.92 multiple

## Cc1cc(=O)n(-c2ccc(OCCN3CCOCC3)c(F)c2)c(COc2cccc(F)c2)n1 [Example 56, 3-(3-fluoro-4-(2-morpholinoethoxy)phenyl)-2-((3-fluorophenoxy)methyl)-6-methylpyrimidin-4(3H)-one]
  IC50: 100 µM
  The ratio with PFD (multiple): 54.14 multiple

## Cc1cc(=O)n(-c2ccc(NCCN3CCOCC3)c(F)c2)c(COc2cccc(F)c2)n1 [Example 57, 3-(3-fluoro-4-((2-morpholinoethyl)amino)phenyl)-2-((3-fluorophenoxy)methyl)-6-methylpyrimidin-4(3H)-one]
  IC50: 100 µM
  The ratio with PFD (multiple): 84.22 multiple

## Cc1cc(=O)n(-c2ccc(N3CCOCC3)c(F)c2)c(COC2CCCCC2)n1 [Example 58, 2-((cyclohexyloxy)methyl)-3-(3-fluoro-4-morpholinophenyl)-6-methylpyrimidin-4(3H)-one]
  IC50: 290 µM
  The ratio with PFD (multiple): 26.37 multiple

## Cc1cc(=O)n(-c2ccc(N3CCOCC3)c(F)c2)c(COc2cccnc2)n1 [Example 59, 3-(3-fluoro-4-morpholinophenyl)-6-methyl-2-((pyridin-3-yloxy)methyl)pyrimidin-4(3H)-one]
  IC50: 300 µM
  The ratio with PFD (multiple): 25.50 multiple

## Cc1cc(=O)n(-c2ccc(N3CCOCC3)c(F)c2)c(COc2cncc(F)c2)n1 [Example 60, 3-(3-fluoro-4-morpholinophenyl)-2-(((5-fluoropyridin-3-yl)oxy)methyl)-6-methylpyrimidin-4(3H)-one]
  IC50: 540 µM
  The ratio with PFD (multiple): 13.72 multiple

## CCCCCCN(CCCCCC)c1ccc(-n2c(COc3cccc(F)c3)nc(C)cc2=O)cc1F [Example 62, 3-(4-(dihexylamino)-3-fluorophenyl)-2-((3-fluorophenoxy)methyl)-6-methylpyrimidin-4(3H)-one]
  IC50: 310 µM
  The ratio with PFD (multiple): 24.68 multiple

## Cc1cc(=O)n(-c2ccc(N3CCOCC3)c(Cl)c2)c(COc2cccc(F)c2)n1 [Example 63, 3-(3-chloro-4-morpholinophenyl)-2-((3-fluorophenoxy)methyl)-6-methylpyrimidin-4(3H)-one]
  IC50: 40 µM
  The ratio with PFD (multiple): 47.43 multiple

## Cc1cc(=O)n(-c2ccc(N3CCOCC3)c(Cl)c2)c(COc2cccc(Cl)c2)n1 [Example 64, 3-(3-chloro-4-morpholinophenyl)-2-((3-chlorophenoxy)methyl)-6-methylpyrimidin-4(3H)-one]
  IC50: 190 µM
  The ratio with PFD (multiple): 10.69 multiple
